Data taken from BigSolDB 2.1.

CC(=O)Nc1ccc(OC(=O)c2ccccc2OC(C)=O)cc1
solubility (mole fraction)
Details	278.15 K	283.15 K	288.15 K	293.15 K	298.15 K	303.15 K	308.15 K	313.15 K	318.15 K
in DMF	0.0175	0.0187	0.0201	0.0214	0.0229	0.0244	0.0258	0.0274	0.029
in NMP	0.0222	0.0255	0.0289	0.0326	0.0368	0.041	0.0461	0.0515	0.0571
in ethanol	0.000261	0.00035	0.000454	0.000588	0.000755	0.000947	0.0012	0.00151	0.00191
in isopropanol	0.000141	0.000191	0.000257	0.000346	0.000456	0.000604	0.000781	0.00103	0.00131
in water	5.59e-07	8.56e-07	1.19e-06	1.74e-06	2.45e-06	3.49e-06	4.82e-06	6.74e-06	8.99e-06
